Assay results published in article PMC7497403, “Development of Potent PfCLK3 Inhibitors Based on TCMDC-135051 as a New Class of Antimalarials” (Journal of Medicinal Chemistry, 2020).

Tests used:
[1] = molecular target: T1, full-length PfCLK3 recombinant protein (Plasmodium falciparum, UniProt Q8IIL5); assay: TR-FRET PfCLK3 in vitro kinase assay; assay type: biochemical, P. falciparum; settings: for IC50: TR-FRET, full-length recombinant PfCLK3, ± SEM, n = 3, read-out: PfCLK3 pIC50 (converted)
T1 sequence (Q8IIL5 1-699): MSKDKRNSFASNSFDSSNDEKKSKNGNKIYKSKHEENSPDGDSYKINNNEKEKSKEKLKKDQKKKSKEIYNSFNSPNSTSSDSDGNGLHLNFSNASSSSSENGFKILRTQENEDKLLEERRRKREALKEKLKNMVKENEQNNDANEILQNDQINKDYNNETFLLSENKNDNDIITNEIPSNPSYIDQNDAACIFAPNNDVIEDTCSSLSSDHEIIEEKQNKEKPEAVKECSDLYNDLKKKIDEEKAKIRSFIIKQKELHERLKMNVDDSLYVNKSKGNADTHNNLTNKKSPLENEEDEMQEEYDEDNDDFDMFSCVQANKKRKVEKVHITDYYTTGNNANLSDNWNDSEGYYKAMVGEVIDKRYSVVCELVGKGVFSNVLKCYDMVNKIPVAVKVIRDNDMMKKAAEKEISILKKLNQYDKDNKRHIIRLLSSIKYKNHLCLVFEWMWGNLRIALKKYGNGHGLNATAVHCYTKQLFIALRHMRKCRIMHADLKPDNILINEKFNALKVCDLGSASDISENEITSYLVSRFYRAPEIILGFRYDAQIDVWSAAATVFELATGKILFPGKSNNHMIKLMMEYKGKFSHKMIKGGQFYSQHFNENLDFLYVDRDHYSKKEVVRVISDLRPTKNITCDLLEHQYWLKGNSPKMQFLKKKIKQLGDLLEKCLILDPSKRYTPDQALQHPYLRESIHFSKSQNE
Protocol: First, in a 10 μL reaction volume, 5 μL of twice the required enzyme concentration (50 nM) and 2.5 μL of four times the required substrate concentration mix containing cold ATP, and the serially diluted drugs were mixed in a black 384-plate well plate and incubated at 37 °C for 1 h. The reaction was stopped after incubation by adding the stopping/detection solution (containing 30 mM EDTA in 1× Lance detection buffer and 3 nM Europium-labeled antiphospho-specific antibody) and incubated for another hour at RT before phosphorylation signals were measured using the ClarioStar.
For each test compound, percent inhibition (response) which was calculated using the formula: [drawing 3] was plotted against the log molar concentration of compound to calculate the IC50 (potency) of each inhibitor molecule and plotted using GraphPad prism software. All experiments were carried out in triplicates, and the data presented were the standard error of the mean (SEM) of three independent experiments run in triplicates.
PfCLK3 phosphorylation of substrate results in the Europium-labeled antiphospho-specific antibody recognizing the phosphorylated site on the substrate. The Europium donor fluorophore is excited at 320 or 340 nm, and energy is transferred to the ULight acceptor dye on the substrate, which finally results in the emission of light at 665 nm. The level of ULight peptide phosphorylation correlates with the intensity of the emission. For normalization, a no kinase and a no inhibitor reaction wells were included, and all experiments were conducted in triplicates. Drug dilutions, protein concentrations, and incubation times were the same for easy comparison of results.

[2] = system: P. falciparum 3D7; assay: Parasite growth inhibition (Sybr Green I) in 3D7 parasites; assay type: cell-based; settings: for fold decrease in parasite growth inhibition: 3D7 parasites, relative to TCMDC-135051 (1); for EC50: Plasmodium falciparum, asexual 3D7 (chloroquine-sensitive) P. falciparum, ± SEM, n = 3, read-out: 3D7 pEC50 (converted); for 3D7 ED50: Table 2, asexual 3D7 P. falciparum
[3] = Microsomal stability; assay type: in vitro ADME; settings: mouse liver microsomes; 1 μM compound
Protocol: Compounds were incubated at 37 °C at a concentration of 1 μM with CD1 mouse liver microsomes (GIBCO, Thermo Fisher Scientific) in a suspension of 50 mM potassium phosphate buffer (pH 7.4) with a final protein concentration of 0.5 mg/mL. The reaction was started by the addition of excess NADPH and then quenched at several time points starting from time 0, then at 3, 6, 9, 15, and 30 min addition of acetonitrile to an aliquot of the sample. An internal standard was added to each sample before centrifugation to remove any precipitates before monitoring loss of parent compound by HPLC analysis using Shimadzu LC-20A (Shimadzu, UK). Prism (Graphpad, USA) was used to fit an exponential decay for substrate depletion and subsequently rate constant (k) from the peak area of the parent compound to the internal standard at each time point.

[4] = system: P. falciparum clinical field isolates from The Gambia; assay: Parasite reduction rate (PRR) assay with clinical isolates; assay type: cell-based; settings: all isolates except GB0020, GB002 and GB0026; at EC50 concentration (18 nM)

Question: For `COc1ccc(CN(C)C)cc1-c1cc2c(-c3ccc(C(=O)O)c(C(C)C)c3)ccnc2[nH]1` [analogue 8a, 4-(2-{5-[(Dimethylamino)methyl]-2-methoxyphenyl}-1H-pyrrolo[2,3-b]pyridin-4-yl)-2-(propan-2-yl)benzoic Acid], which IC50 [1] is on record?
Answer: The IC50 was 31.6 nM.

Question: What about the “fold decrease in parasite growth inhibition” value [2] of the same compound?
Answer: Its value is 2 fold.

Question: And the EC50 [2]?
Answer: The EC50 was 501 nM.

Question: What about the “clint (in vitro intrinsic clearance)” value [3] of the same compound?
Answer: Its value is 2.53 mL/min/g liver.

Question: With `COc1ccc(CN2CCCC2)cc1-c1cc2c(-c3ccc(C(=O)O)c(C(C)C)c3)ccnc2[nH]1` [analogue 8b, 4-(2-{2-Methoxy-5-[(pyrrolidin-1-yl)methyl]phenyl}-1H-pyrrolo[2,3-b]pyridin-4-yl)-2-(propan-2-yl)benzoic Acid] as the compound, how does the “fold decrease in parasite growth inhibition” value [2] read?
Answer: Its value is 2 fold.

Question: What about the “clint (in vitro intrinsic clearance)” value [3] of the same compound?
Answer: The value was 1.94 mL/min/g liver.

Question: With `COc1ccc(CN2CCOCC2)cc1-c1cc2c(-c3ccc(C(=O)O)c(C(C)C)c3)ccnc2[nH]1` [analogue 8c, 4-(2-{2-Methoxy-5-[(morpholin-4-yl)methyl]phenyl}-1H-pyrrolo[2,3-b]pyridin-4-yl)-2-(propan-2-yl)benzoic Acid] as the compound, how does the IC50 [1] read?
Answer: Its IC50 is 10 nM.

Question: What about the “clint (in vitro intrinsic clearance)” value [3] of the same compound?
Answer: Its value is 1.60 mL/min/g liver.

Question: Which “clint (in vitro intrinsic clearance)” value [3] does the source give for `CCOC(=O)c1ccc(-c2ccnc3[nH]c(-c4cc(CN(CC)CC)ccc4OC)cc23)cc1C(C)C` [analogue 9, Ethyl 4-(2-(5-((Diethylamino)methyl)-2-methoxyphenyl)-1H-pyrrolo[2,3-b]pyridin-4-yl)-2-isopropylbenzoate] here?
Answer: Its value is 16.06 mL/min/g liver.

Question: Which results are given for `COc1ccc(CN)cc1-c1cc2c(-c3ccc(C(=O)O)c(C(C)C)c3)ccnc2[nH]1` [analogue 12, 4-{2-[5-(Aminomethyl)-2-methoxyphenyl]-1H-pyrrolo[2,3-b]pyridin-4-yl}-2-(propan-2-yl)benzoic Acid]?
Answer: fold less potent in vitro (PfCLK3) ([1]; relative to TCMDC-135051 (1)): 2 fold; clint (in vitro intrinsic clearance) [3]: 2.92 mL/min/g liver

Question: What does the source list for `COc1ccccc1-c1cc2c(-c3ccc(C(=O)O)c(C(C)C)c3)ccnc2[nH]1` [analogue 15, 4-[2-(2-Methoxyphenyl)-1H-pyrrolo[2,3-b]pyridin-4-yl]-2-(propan-2-yl)benzoic Acid]?
Answer: fold decrease in parasite growth inhibition [2]: 7 fold; clint (in vitro intrinsic clearance) [3]: 2.54 mL/min/g liver

Question: Which IC50 [1] does the source give for `CCN(CC)Cc1ccc(O)c(-c2cc3c(-c4ccc(C(=O)O)c(C(C)C)c4)ccnc3[nH]2)c1` [analogue 19, 4-(2-(5-((Diethylamino)methyl)-2-hydroxyphenyl)-1H-pyrrolo[2,3-b]pyridin-4-yl)-2-isopropylbenzoic Acid] here?
Answer: The IC50 was 20 nM.

Question: And the EC50 [2]?
Answer: The EC50 was 3160 nM.

Question: And the “clint (in vitro intrinsic clearance)” value [3]?
Answer: The value was 1.94 mL/min/g liver.

Question: With `CCN(CC)Cc1cccc(-c2cc3c(-c4ccc(C(=O)O)c(C(C)C)c4)ccnc3[nH]2)c1` [analogue 23, 4-(2-{3-[(Diethylamino)methyl]phenyl}-1H-pyrrolo[2,3-b]pyridin-4-yl)-2-(propan-2-yl)benzoic Acid] as the compound, how does the “fold decrease in parasite growth inhibition” value [2] read?
Answer: The value was 1.5 fold.

Question: What about the “clint (in vitro intrinsic clearance)” value [3] of the same compound?
Answer: Its value is 0.85 mL/min/g liver.

Question: For `CCN(CC)Cc1cccc(-c2cc3c(-c4ccc(C(=O)O)c(C(C)C)c4)ccnc3[nH]2)c1OC` [analogue 27, 4-(2-(3-((Diethylamino)methyl)-2-methoxyphenyl)-1H-pyrrolo[2,3-b]pyridin-4-yl)-2-isopropylbenzoic Acid], which IC50 [1] is on record?
Answer: The IC50 was 20 nM.

Question: What about the “fold increase in in vitro kinase activity (PfCLK3)” value ([1]; relative to TCMDC-135051 (1)) of the same compound?
Answer: The value was 2 fold.

Question: What about the “fold decrease in parasite growth inhibition” value [2] of the same compound?
Answer: Its value is 15 fold.

Question: What about the “clint (in vitro intrinsic clearance)” value [3] of the same compound?
Answer: Its value is 1.65 mL/min/g liver.

Question: What does the source list for `CCN(CC)Cc1ccc(OC)c(-c2cc3c(-c4ccc(C(=O)O)c(C)c4)ccnc3[nH]2)c1` [analogue 28, 4-(2-(5-((Diethylamino)methyl)-2-methoxyphenyl)-1H-pyrrolo[2,3-b]pyridin-4-yl)-2-methylbenzoic Acid]?
Answer: fold decrease in parasite growth inhibition [2]: 6 fold; 3D7 ED50 [2]: 1185 nM; clint (in vitro intrinsic clearance) [3]: 1.33 mL/min/g liver

Question: For `CCN(CC)Cc1ccc(OC)c(-c2cc3c(-c4ccc(C(=O)O)cc4)ccnc3[nH]2)c1` [analogue 29, 4-(2-(5-((Diethylamino)methyl)-2-methoxyphenyl)-1H-pyrrolo[2,3-b]pyridin-4-yl)benzoic Acid], which IC50 [1] is on record?
Answer: Its IC50 is 31.6 nM.

Question: And the “fold decrease in parasite growth inhibition” value [2]?
Answer: Its value is 16 fold.

Question: And the “3D7 ED50” value [2]?
Answer: Its value is 3272 nM.

Question: And the “clint (in vitro intrinsic clearance)” value [3]?
Answer: The value was 11.01 mL/min/g liver.

Question: For `CCN(CC)Cc1ccc(OC)c(-c2cc3c(-c4ccc(-c5nnn[nH]5)c(C(C)C)c4)ccnc3[nH]2)c1` [analogue 30, N-Ethyl-N-(3-(4-(3-isopropyl-4-(1H-tetrazol-5-yl)phenyl)-1H-pyrrolo[2,3-b]pyridin-2-yl)-4-methoxybenzyl)ethanamine], which “clint (in vitro intrinsic clearance)” value [3] is on record?
Answer: The value was 2.32 mL/min/g liver.

Question: What does the source list for `CCN(CC)Cc1ccc(OC)c(-c2cc3c(-c4cccc(C(C)C)c4)ccnc3[nH]2)c1` [analogue 31, N-Ethyl-N-(3-(4-(3-isopropylphenyl)-1H-pyrrolo[2,3-b]pyridin-2-yl)-4-methoxybenzyl)ethanamine]?
Answer: IC50 [1]: 1000 nM; clint (in vitro intrinsic clearance) [3]: 9.54 mL/min/g liver

Question: For `CCc1nc(N)nc(N)c1-c1ccc(Cl)cc1` [pyrimethamine, reference compound], which “reduction in parasitemia (PRR)” value [4] is on record?
Answer: Its value is “at least 70%”.
